Data as given in article PMC9141242, “Enhanced Soluble Expression of Linoleic Acid Isomerase by Coordinated Regulation of Promoter and Fusion Tag in Escherichia coli” (Foods, 2022).

Molecular target: T1, MBP-PAI (Cutibacterium acnes, UniProt Q6A8X5)
T1 construct: gene PPA1039; PAI (about 50 kDa); synthesized gene in pET-24a(+), E. coli BL21(DE3)
T1 sequence (Q6A8X5 1-424): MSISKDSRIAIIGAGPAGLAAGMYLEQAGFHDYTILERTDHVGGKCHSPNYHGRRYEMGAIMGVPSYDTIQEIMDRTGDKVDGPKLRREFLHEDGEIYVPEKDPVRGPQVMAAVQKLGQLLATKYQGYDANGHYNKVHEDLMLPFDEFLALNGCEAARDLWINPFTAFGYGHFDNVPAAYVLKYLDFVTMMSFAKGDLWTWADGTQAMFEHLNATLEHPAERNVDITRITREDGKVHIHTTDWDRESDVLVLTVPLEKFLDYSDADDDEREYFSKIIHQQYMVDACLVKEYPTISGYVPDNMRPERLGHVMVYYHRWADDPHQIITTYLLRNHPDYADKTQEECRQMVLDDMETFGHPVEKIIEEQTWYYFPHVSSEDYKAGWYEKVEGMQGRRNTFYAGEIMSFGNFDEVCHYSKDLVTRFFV
Experiment: spectrophotometry at […] nm, CLA formation, Lineweaver-Burk
Assay type: biochemical
Details: optimal conditions (37 °C, pH 7.5, 1 mmol/L Tween-20); LA 71-1428 μM; MBP tag not cleaved; apparent

CCCCC/C=C\C/C=C\CCCCCCCC(=O)O [linoleic acid] showed a Km of 254 µM.
